According to ChEMBL document CHEMBL1201862, “PubChem BioAssay data set” (2004):
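Growth conditions: 96-well plates. Treatment: test compound, 48 hours, 5 concentrations. Analysis: linear interpolation between bracketing concentrations; unreached endpoints set to highest concentration. Abbreviation: GI50, concentration required for 50% inhibition of growth.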 Active and inactive are the calls of the source. Rule as the data show it: active = GI50 up to about 1.1 µM and inactive = higher.

Legend:
Experiment in all cases: DTP human tumour cell line panel, 48 h
DU-145 = system: DU-145
MDA-N = system: MDA-N
Hs-578T = system: Hs-578T
BT-549 = system: BT-549
XF498 = system: XF498
LXFL 529 = system: LXFL 529
M19-MEL = system: M19-MEL
HOP-18 = system: HOP-18

Compound | GI50 (DU-145) | GI50 (MDA-N) | GI50 (Hs-578T) | GI50 (BT-549) | GI50 (XF498) | GI50 (LXFL 529) | GI50 (M19-MEL) | GI50 (HOP-18)
NNC(=O)c1ccc(OCc2nc3ccccc3[nH]2)cc1 | 94.2 µM (inactive) | > 100 µM (inactive) | 28.1 µM (inactive) | 52.2 µM (inactive) |  |  |  | 
O=c1c2cc(-c3ccccc3)sc2nc2n1N=C(c1ccccc1)CS2 | 94.4 µM (inactive) | 34.9 µM (inactive) | 8.63 µM (inactive) | 18.4 µM (inactive) |  |  |  | 
CC1CN=C(Nc2ccc(F)c(Cl)c2)S1 (stereo unspecified) | > 100 µM (inactive) | > 100 µM (inactive) | > 100 µM (inactive) | > 100 µM (inactive) |  |  |  | 
NS(=O)(=O)c1cc(C(=O)O)c(Cl)c([N+](=O)[O-])c1Cl | > 100 µM (inactive) | > 100 µM (inactive) | > 100 µM (inactive) | > 100 µM (inactive) |  |  |  | 
NC1CNC(=O)c2c(Cl)sc(Cl)c21 (stereo unspecified) | > 100 µM (inactive) | > 100 µM (inactive) | > 100 µM (inactive) |  |  |  |  | 
COc1cc(/C=C2\N=C(c3ccccc3)N(c3ccc(S(=O)(=O)Nc4nccs4)cc3)C2=O)ccc1O | > 100 µM (inactive) |  | > 100 µM (inactive) | 73.6 µM (inactive) |  |  |  | 
BrC1=CCC23CC=C(Br)[C@H]4CC2(COC3)C[C@@H]1O4 (stereo partly specified) |  |  |  |  | 76.6 µM (inactive) | 40.3 µM (inactive) | > 100 µM (inactive) | 
C/C(CC(=O)Nc1ccc(C)c(C)c1)=N\N(c1ccccc1)c1ccccc1 |  |  |  |  | > 100 µM (inactive) | 64.1 µM (inactive) |  | > 100 µM (inactive)
Cc1cc2nc3c(N)nn(CCN(C)C)c3nc2cc1C | 40.8 µM (inactive) | 50.8 µM (inactive) | 40.2 µM (inactive) | 57.9 µM (inactive) |  |  |  | 
CCCCNC(=O)Nc1c(C(N)=O)c2n(c1C(=O)OCC)CCCCC2 | > 100 µM (inactive) |  | 64.9 µM (inactive) | > 100 µM (inactive) |  |  |  | 
O=S1(=O)OCCOS(=O)(=O)C1C1c2ccccc2-c2ccccc21 | 37.3 µM (inactive) | 36.7 µM (inactive) | 44.9 µM (inactive) | 48.8 µM (inactive) |  |  |  | 
CC(=O)O[C@H]1[C@@H](N2CCOCC2)C[C@H]2[C@@H]3CC=C4C[C@@H](N5CCCC5)CC[C@]4(C)[C@H]3CC[C@@]21C | > 100 µM (inactive) | > 100 µM (inactive) | > 100 µM (inactive) | > 100 µM (inactive) |  |  |  | 
CC(C)C(=O)OCC1OC(n2c(Br)nc3c(=O)[nH]c(N)nc32)C(OC(=O)C(C)C)C1OC(=O)C(C)C (stereo unspecified) | > 100 µM (inactive) | 41 µM (inactive) | 29 µM (inactive) | 35.5 µM (inactive) |  |  |  | 
COc1cc(/C=N/N=C(\N)NO)cc(OC)c1OC | 26.3 µM (inactive) |  | 42.2 µM (inactive) |  |  |  |  | 
Fc1c(F)c(F)c2c(c1F)CSc1nc3ccccc3n1-2 | > 100 µM (inactive) |  | > 100 µM (inactive) |  |  |  |  | 
Cn1c2c(c3ccccc31)CC(=O)N1CCCC(C1)CC21OCCO1 (stereo unspecified) | > 100 µM (inactive) | 33.5 µM (inactive) |  | > 100 µM (inactive) |  |  |  | 
Cc1cc(S(=O)(=O)NC2=Nc3ccc(Cl)cc3C(c3ccccc3)N2)c(S)cc1Cl (stereo unspecified) | > 100 µM (inactive) | > 100 µM (inactive) | > 100 µM (inactive) | > 100 µM (inactive) |  |  |  | 
O=C1Oc2ccccc2N/C1=C/C(=O)c1ccc([N+](=O)[O-])cc1 | > 100 µM (inactive) |  | 23.2 µM (inactive) | 98.2 µM (inactive) |  |  |  | 
CCSc1c2cc(OC)ccc2nc2ccc(OC)cc12 | 18.2 µM (inactive) | 5.24 µM (inactive) | > 100 µM (inactive) | 23.7 µM (inactive) |  |  |  | 

Compound | GI50 (DU-145) | GI50 (MDA-N) | GI50 (Hs-578T) | GI50 (BT-549) | GI50 (XF498) | GI50 (LXFL 529) | GI50 (M19-MEL) | GI50 (HOP-18)
CCOC1=NC(C(F)(F)F)(C(F)(F)F)N=C(/N=C(/N)N(C)C(C(C)C)P(=O)(OC(C)C)OC(C)C)O1 (stereo unspecified) | > 100 µM (inactive) | > 100 µM (inactive) | 61.4 µM (inactive) | 40.6 µM (inactive) |  |  |  | 
Clc1ccc(-c2nn3c(-c4ccncc4)nnc3s2)cc1 | 42.9 µM (inactive) | > 100 µM (inactive) | > 100 µM (inactive) | > 100 µM (inactive) |  |  |  | 
COC(=O)C[C@H](COCc1ccccc1)NC(=O)C[C@H](COCc1ccccc1)NC(=O)OC(C)(C)C | 22.4 µM (inactive) |  | 26.4 µM (inactive) | 20.7 µM (inactive) |  |  |  | 
Cn1cc(-c2ccc3c4ccccc4n(C)c3c2)c2ccccc21 |  |  |  |  |  | > 100 µM (inactive) | > 100 µM (inactive) | > 100 µM (inactive)
CC1=NN(c2nc(N)nc(CSCc3nc(N)nc(N(C)C)n3)n2)C(C)(C)C1 | > 100 µM (inactive) |  | > 100 µM (inactive) | > 100 µM (inactive) |  |  |  | 
Brc1cccc(C2(CCCC3(c4cccc(Br)n4)OCCO3)OCCO2)n1 |  | > 100 µM (inactive) |  | > 100 µM (inactive) |  |  |  | 
O=C1OC2(C(F)(F)F)Oc3ccccc3CN2C12CCCCC2 (stereo unspecified) | 32.3 µM (inactive) | 29.1 µM (inactive) |  | 28.4 µM (inactive) |  |  |  | 
COC(=O)c1c(C)[nH]c2c1cc(O)c1nc(C)c(C)nc12 | > 100 µM (inactive) | > 100 µM (inactive) | 45.9 µM (inactive) | > 100 µM (inactive) |  |  |  | 
OCC1OC(n2nc(-c3ccccc3)nc2-c2cnccn2)C(O)C(O)C1O (stereo unspecified) | > 100 µM (inactive) | > 100 µM (inactive) |  | > 100 µM (inactive) |  |  |  | 
O=C(/C=C/c1ccc2c(c1)OCO2)Cc1nc2ccccc2[nH]c1=O | 29.2 µM (inactive) | 26.6 µM (inactive) | 14.1 µM (inactive) | 43.7 µM (inactive) |  |  |  | 
NCCCC[C@H](N)C(=O)Nc1ccc(-c2nc3ccccc3s2)cc1Cl | 6.78 µM (inactive) | 4.46 µM (inactive) | 16.3 µM (inactive) |  |  |  |  | 
CC(C)(C)OC(=O)NCC(=O)N(CCc1ccc(Cl)c(Cl)c1)CCN1CCCC1 | 16.9 µM (inactive) | 14.3 µM (inactive) | 18.8 µM (inactive) | 20 µM (inactive) |  |  |  | 
COc1ccc(OC)c2sc(N3C(=O)/C(=C/c4cccc([N+](=O)[O-])c4)N=C3c3ccccc3)nc12 | 68.4 µM (inactive) | 32.4 µM (inactive) | 51.9 µM (inactive) | 48.5 µM (inactive) |  |  |  | 
O=C(c1ccco1)C1CC(c2ccc3ccccc3c2O)=NN1 (stereo unspecified) | > 100 µM (inactive) | 59.4 µM (inactive) | > 100 µM (inactive) | > 100 µM (inactive) |  |  |  | 
CSc1nc(-c2ccc(C)cc2)c(C#N)c(=O)[nH]1 | > 100 µM (inactive) |  | > 100 µM (inactive) | > 100 µM (inactive) |  |  |  | 
O=C1C=CC(O)(C#CCO)C=C1 | 16 µM (inactive) | 8.57 µM (inactive) | 29.2 µM (inactive) | 12 µM (inactive) |  |  |  | 
O=c1[nH]nc(-c2ccccc2)n1/N=C/c1ccco1 | > 100 µM (inactive) | > 100 µM (inactive) | > 100 µM (inactive) | 32.6 µM (inactive) |  |  |  | 
CSC(=S)N/N=C(\C)c1ccc(S(=O)(=O)N(C)c2ccccc2)cc1 | > 100 µM (inactive) | 30.3 µM (inactive) | 15.5 µM (inactive) |  |  |  |  | 
[N-]=[N+]=NC(c1cn(C2CC(O)C(CO)O2)c(=O)[nH]c1=O)C(Br)I (stereo unspecified) |  |  |  |  |  | > 100 µM (inactive) | > 100 µM (inactive) | 

Compound | GI50 (DU-145) | GI50 (MDA-N) | GI50 (Hs-578T) | GI50 (BT-549) | GI50 (XF498) | GI50 (LXFL 529) | GI50 (M19-MEL) | GI50 (HOP-18)
C#C[C@]1(O)CC[C@H]2[C@@H]3CCC4=C/C(=N\OCCN5CCCCC5)CC[C@]4(C)[C@H]3CC[C@@]21C | 8.51 µM (inactive) | 1.66 µM (inactive) | 3.53 µM (inactive) | 5.89 µM (inactive) |  |  |  | 
CC(C)CNC(=O)Cn1c2c(c3ccccc31)CCCC2 |  | 54 µM (inactive) | 50.8 µM (inactive) | > 100 µM (inactive) |  |  |  | 
CC(=O)C1(C(=O)C(=[N+]=[N-])S(=O)(=O)c2ccccc2)CC1 | > 100 µM (inactive) | > 100 µM (inactive) | > 100 µM (inactive) | > 100 µM (inactive) |  |  |  | 
C=CCOC1=C(OC(C)=O)C(C2COC(C)(C)O2)OC1=O (stereo unspecified) | 36.6 µM (inactive) | 29.7 µM (inactive) | 33.4 µM (inactive) | 27.4 µM (inactive) |  |  |  | 
CCOC(=O)CSc1cc[nH]c(=O)n1 |  |  |  |  | 75 µM (inactive) | > 100 µM (inactive) | > 100 µM (inactive) | 
COc1cccc(-c2cc(=O)c3cc(N4CCCCC4)ccc3[nH]2)c1 | 0.0622 µM (active) | < 0.01 µM (active) | < 0.014 µM (active) |  |  |  |  | 
CC[N+](CC)(CC)/C(=N\S(=O)(=O)c1ccc(Cl)cc1)[N-]S(=O)(=O)c1cc(C)c(Cl)cc1S | 97.3 µM (inactive) | > 100 µM (inactive) | > 100 µM (inactive) |  |  |  |  | 
C1CCN2CC3CONC3C2C1 (stereo unspecified) |  |  |  |  | > 100 µM (inactive) | > 100 µM (inactive) | > 100 µM (inactive) | 
O=C(c1ccccc1)c1c(CC(O)c2ccccn2)n(C(=O)c2ccccc2)c2ccccc12 (stereo unspecified) |  |  |  |  | 20.4 µM (inactive) | 28.5 µM (inactive) | 20.8 µM (inactive) | 
COC(=O)N(C(=O)OC)C(C(=O)O)C(C)C (stereo unspecified) |  |  |  |  |  | > 100 µM (inactive) | > 100 µM (inactive) | > 100 µM (inactive)
O=S(=O)(O)c1cc(S(=O)(=O)O)c2c(/N=N/c3ccccc3)c(O)ccc2c1 | > 100 µM (inactive) | > 100 µM (inactive) | > 100 µM (inactive) | > 100 µM (inactive) |  |  |  | 
CN(Cc1cnc2nc(N)nc(N)c2n1)c1ccc(C(=O)NC(CCC(=O)NCCC(P(=O)(O)O)P(=O)(O)O)C(=O)O)cc1 (stereo unspecified) | 21.2 µM (inactive) | 8.55 µM (inactive) | > 100 µM (inactive) | > 100 µM (inactive) |  |  |  | 
C=C(C)C(O)C(O)C[C@@H](C)C1CC[C@]23C[C@]12CCC1[C@@]2(C)CCC(OC(C)=O)C(C)(C)C2CC(OC2OC(CO)C(O)C(O)C2O)[C@]13C (stereo partly specified) | 21.2 µM (inactive) | 17.3 µM (inactive) | 21 µM (inactive) | 14.5 µM (inactive) |  |  |  | 
CC1CC(=O)C2CC(CO)=CCCC2C1(C)CC/C(=C/CO)CO (stereo unspecified) |  |  |  |  |  | > 100 µM (inactive) | > 100 µM (inactive) | > 100 µM (inactive)
O=C(O)c1cc2cc(OCc3ccccc3)ccc2[nH]1 | > 100 µM (inactive) | > 100 µM (inactive) | 4.72 µM (inactive) |  |  |  |  | 
COc1ccc(C2=C(OC(=O)N(C)C)c3cccn3-c3cc(Cl)ccc3S2)cc1 | > 10 µM (inactive) | > 10 µM (inactive) |  |  |  |  |  | 
Cn1c(O)c(C2=Nc3ccccc3C2=O)c2ccccc21 | > 100 µM (inactive) | > 100 µM (inactive) | > 100 µM (inactive) | > 100 µM (inactive) |  |  |  | 
COc1ccc2c(=O)c(C)c(-c3ccccc3)oc2c1CN(C)C [DIMEFLINE] |  |  |  |  | 69.3 µM (inactive) | > 100 µM (inactive) |  | > 100 µM (inactive)
C=C1C[C@]23C[C@@]1(O)CC[C@H]2[C@@]12C=C[C@H](O)[C@@](C)(C(=O)O1)[C@H]2[C@@H]3C(=O)O [GIBBERELLIN A3] |  |  |  |  | > 100 µM (inactive) |  | > 100 µM (inactive) | 
